Measurements taken from patent US20240366638A1, “[…] FOR TREATING PSY[…]” (SYNAPTIVE THERAPEUTICS LLC, priority 2021, published 2024).
Entries after “also recorded” stand apart in the source; their conditions may differ.

Experiments:
male C57BL/6 mice [1] = assay: Animal models of anxiety and depression in mice, overall (OFT, EPM, TST, FST); format: in vivo; details: IP, FST taken together
Experimental: Summary. The goal of the present project was to assess psilocybin metabolites in animal models of anxiety and depression in mice. Specifically, baeocystin (0.3 mg/kg-30 mg/kg), norbaeocystin (0.3-3.0 mg/kg), aeruginascin (0.3-3.0 mg/kg) and norpsilocin (0.3-3.0 mg/kg) were tested in the open field test (OFT), elevated plus maze (EPM), tail suspension test (TST) and forced swim test (FST). Overall, most compounds were ineffective and/or increased negative behaviors.
(§1) Methods. The open field test (OFT) was conducted by placing a mouse in a gray chamber 40×40 cm of 30 cm height and allowed to explore at will for 30 minutes. A digital camera positioned above the chamber recorded behavior. Animals that spend more time in the center (open area) compared to along the walls (thigmotaxis) are deemed less anxious. The open field apparatus was cleaned with Peroxigard wipes after each use.
(§2) The elevated plus maze (EPM) is a behavioral assay that measures anxiety in rodents. The apparatus is composed of open and closed arms arranged in a “plus” measuring, 35 cm arm length; 5 cm arm width; 20 cm wall height and stands 61 cm height. Each mouse was placed on the maze within the center area facing towards an open arm and allowed to explore the EPM for 5 minutes. The experimenter observed the mouse from outside the test room through an observational window. Behavior was recorded via a digital camera mounted above the maze. The apparatus was cleaned with Peroxigard wipes after each trial.
(§3) The tail-suspension test (TST) is a model of depression and has been used to screen prospective antidepressant compounds. It involves suspending mice above the ground by their tails with tape for a predetermined time. A 17 cm piece of tape was taped to the tail (2 cm of the 17 cm) of each mouse and then attached to a metal shelf for 6 minutes. Each mouse was digitally recorded and data analyzed using specialized software with particular focus on time immobile. After the trial, tape was removed and mice returned to their home cage.
The forced swim test is a classic behavioral assay to test for depressive behavior such as immobility. The apparatus is composed of a Plexiglas cylinder measuring (20 cm diameter, 45 cm height) that is filled with water maintained at room temperature (23-25 C). During testing, mice were placed into the water by the nape of the neck facing the wall and released and behavior recorded via a digital camera for 6 minutes. After the test, mice were dried off with a towel and placed in their home cage in which half is heated by a heating pad placed underneath the cage. Fecal matter was removed after every test. Water was changed after 10 mice were run in each cylinder. […]
Statistical analysis. Data were analyzed using a one-way ANOVA with drug dose as the primary factor. […]

male C57BL/6 mice [2] = assay: Tail suspension test (TST); format: in vivo; details: for TST: summary of effect on behavior, doses tested IP, mice; for Tail suspension test activity (time immobile), statistical comparison between groups: various doses IP, 6 minutes, one-way ANOVA with Tukey's test, ketamine positive control
Experimental: as §3
(§4) Statistical analysis. Data were analyzed using a one-way ANOVA with drug dose as the primary factor. Post-hoc multiple comparison analysis was performed following significant main effects using Tukey's multiple comparisons test (GraphPad Prism 9.2.0). Statistical significance was set at P<0.05.
(§5) Results. A total of 170 male C57BL/6 mice were used for this study (see TABLE 3.). One mouse in the diazepam group died of unknown causes. Another mouse developed a skin condition in the aeruginascin (1.0 mg/kg) group and was excluded from the FST test. All other test groups consisted of N=10 per group. Statistical comparisons are noted in each figure legend.

male C57BL/6 mice [3] = assay: Open field test (OFT), time in center zone; format: in vivo; set-up: key to OFT (center time): ↓ = decrease; ↑ = increase; neg = negative; pos = positive; ns = not statistically significant; details: for OFT (center time): summary of effect on behavior, doses tested IP; for Time in the center zone of the open field chamber, statistical comparison between groups: various doses IP, 30 min period, one-way ANOVA with Tukey's test, diazepam positive control
Experimental: as §1, §4, §5

male C57BL/6 mice [4] = assay: Elevated plus maze (EPM), time on open arms; format: in vivo; set-up: key to EPM: ↓ = decrease; ↑ = increase; neg = negative; pos = positive; ns = not statistically significant; details: for EPM: summary of effect on behavior (time on open arms), doses tested IP; for Time spent on the open arms of the EPM, statistical comparison between groups: various doses IP, 5 minutes, one-way ANOVA with Tukey's test, diazepam positive control
Experimental: as §2, §4, §5

male C57BL/6 mice [5] = assay: Open field test (OFT), locomotor activity; format: in vivo; set-up: key to OFT: ↓ = decrease; ↑ = increase; neg = negative; pos = positive; ns = not statistically significant; details: for OFT: summary of effect on overall locomotor activity, doses tested IP, mice; for Locomotor activity in the open field, statistical comparison between groups: various doses IP, 30 min period, one-way ANOVA with Tukey's test, diazepam positive control
Experimental: as §1, §4, §5

male C57BL/6 mice [6] = assay: Forced swim test (FST); format: in vivo; set-up: key to FST: ↓ = decrease; ↑ = increase; neg = negative; pos = positive; ns = not statistically significant; details: for FST: summary of effect on behavior, doses tested IP, mice; for Forced swim test activity, statistical comparison between groups: various doses IP, 6 minutes, one-way ANOVA with Tukey's test, ketamine positive control
Experimental: The forced swim test is a classic behavioral assay to test for depressive behavior such as immobility. The apparatus is composed of a Plexiglas cylinder measuring (20 cm diameter, 45 cm height) that is filled with water maintained at room temperature (23-25 C). During testing, mice were placed into the water by the nape of the neck facing the wall and released and behavior recorded via a digital camera for 6 minutes. After the test, mice were dried off with a towel and placed in their home cage in which half is heated by a heating pad placed underneath the cage. Fecal matter was removed after every test. Water was changed after 10 mice were run in each cylinder. After the completion of the experiment, water was drained and the cylinder cleaned with Peroxigard wipes.
as §4, §5

[7] = cited from earlier work

Row | SMILES | Overall effect across behavioral tests of anxiety and depression (male C57BL/6 mice [1]) | TST (male C57BL/6 mice [2]) | Tail suspension test activity (time immobile), statistical comparison between groups (male C57BL/6 mice [2]) | OFT (center time) (male C57BL/6 mice [3]; mice) | Time in the center zone of the open field chamber, statistical comparison between groups (male C57BL/6 mice [3]) | EPM (male C57BL/6 mice [4]; mice) | Time spent on the open arms of the EPM, statistical comparison between groups (male C57BL/6 mice [4]) | OFT (male C57BL/6 mice [5]) | Locomotor activity in the open field, statistical comparison between groups (male C57BL/6 mice [5]) | FST (male C57BL/6 mice [6]) | Forced swim test activity, statistical comparison between groups (male C57BL/6 mice [6]) | Hallucinogenic effect in a self-administered assay ([7]; 4 mg of baeocystin, Gartz research paper) | Psychoactivity in humans compared with psilocybin ([7]; 10 mg of baeocystin, study reported by Gartz) | Time spent on the open arms in the EPM (male C57BL/6 mice [4]; 10 mg/kg, IP, mice) | Time spent on the open arm in the EPM (male C57BL/6 mice [4]; 30 mg/kg (highest dose), IP, mice) | Time spent in the center zone in the OFT (male C57BL/6 mice [3]; 3.0 mg/kg, IP, mice)
1 | C[N+](C)(C)CCc1c[nH]c2cccc(OP(=O)(O)O)c12 [Aeruginascin] | either produced no significant effect or a significant negative impact across all behavioral tests | ↑ (neg) | significant differences between saline and ketamine and all doses of aeruginascin | ns | no significant differences between groups | ns | no differences between groups | ↓ (neg) | significant difference between aeruginascin 0.3 and 1.0 mg/kg | ↑ (neg) | significant differences between ketamine and aeruginascin 0.3 and 3.0 mg/kg doses | – | – | – | – | –
2 | CNCCc1c[nH]c2cccc(OP(=O)(O)O)c12 [Baeocystin] | can exert anxiolytic effects in mice using certain behavioral procedures; also recorded: have anxiolytic activity and no harmful psychoactive effects, including no depressive activity | ↑ (neg) | significant differences between the two highest doses of baeocystin and other groups | ns | no significant difference between groups | ↑ (pos) | the highest dose of baeocystine increased time spent on the open arm compared to saline | ↓ (neg) | significant differences between the highest dose of baeocystin and all other groups | ns | no significant differences between groups | a gentle hallucinogenic experience | about as psychoactive as a similar amount of psilocybin | tended to increase time spent on the open arms however, this did not reach statistical significance | significantly increased time spent on the open arm | –
3 | CNCCc1c[nH]c2cccc(O)c12 [Norpsilocin] | can exert anxiolytic effects in mice using certain behavioral procedures; also recorded: have anxiolytic activity and no harmful psychoactive effects, including no depressive activity | ↑ (neg) | significant differences between ketamine and all doses of norpsilocin | ↑ (pos) | significantly increased time spent in the center zone of the OFT; also recorded: highly significant differences between the highest dose of norpsilocin and all other groups | ns | no differences between groups | ↓ (neg) | significant differences between diazepam and norpsilocin 1.0 and 3.0 mg/kg | ns | no differences between any groups | – | – | – | – | the only compound that increased time spent in the center zone in the OFT and this effect was highly significant
4 | NCCc1c[nH]c2cccc(OP(=O)(O)O)c12 [Norbaeocystin] | either produced no significant effect or a significant negative impact across all behavioral tests | ↑ (neg) | significant differences between saline and ketamine and all doses of norbaeocystin | ↓ (neg) | significant difference between diazepam and the highest dose of norbeaocystin | ns | no differences between groups | ns | a trend towards a difference between norbaeocystin 1.0 vs. 3.0 mg/kg | ns | no significant differences between groups | – | – | – | – | –
